Data set [1] deals with T1, CYP2C8 (Homo sapiens, UniProt P10632).
T1 sequence (P10632 1-490): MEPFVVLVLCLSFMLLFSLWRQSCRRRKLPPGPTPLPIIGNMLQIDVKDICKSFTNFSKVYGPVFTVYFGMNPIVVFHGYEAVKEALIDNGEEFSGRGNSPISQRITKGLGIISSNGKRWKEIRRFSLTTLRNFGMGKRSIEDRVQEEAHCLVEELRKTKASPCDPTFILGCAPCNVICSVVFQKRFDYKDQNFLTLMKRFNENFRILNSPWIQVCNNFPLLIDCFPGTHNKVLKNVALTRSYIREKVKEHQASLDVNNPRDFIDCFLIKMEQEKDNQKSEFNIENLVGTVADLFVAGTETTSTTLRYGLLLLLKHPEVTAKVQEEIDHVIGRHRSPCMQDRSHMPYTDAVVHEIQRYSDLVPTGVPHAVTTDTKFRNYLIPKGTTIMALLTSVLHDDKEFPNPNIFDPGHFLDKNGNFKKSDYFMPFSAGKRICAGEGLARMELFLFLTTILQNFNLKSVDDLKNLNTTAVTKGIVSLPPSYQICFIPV
The following applies: read-out: CYP2C8 IC50; substrate amodiaquine; ref [51]; cited from earlier work.

Data set [2] deals with T2, CYP26B1 (Homo sapiens, UniProt Q9NR63).
T2 sequence (Q9NR63 1-512): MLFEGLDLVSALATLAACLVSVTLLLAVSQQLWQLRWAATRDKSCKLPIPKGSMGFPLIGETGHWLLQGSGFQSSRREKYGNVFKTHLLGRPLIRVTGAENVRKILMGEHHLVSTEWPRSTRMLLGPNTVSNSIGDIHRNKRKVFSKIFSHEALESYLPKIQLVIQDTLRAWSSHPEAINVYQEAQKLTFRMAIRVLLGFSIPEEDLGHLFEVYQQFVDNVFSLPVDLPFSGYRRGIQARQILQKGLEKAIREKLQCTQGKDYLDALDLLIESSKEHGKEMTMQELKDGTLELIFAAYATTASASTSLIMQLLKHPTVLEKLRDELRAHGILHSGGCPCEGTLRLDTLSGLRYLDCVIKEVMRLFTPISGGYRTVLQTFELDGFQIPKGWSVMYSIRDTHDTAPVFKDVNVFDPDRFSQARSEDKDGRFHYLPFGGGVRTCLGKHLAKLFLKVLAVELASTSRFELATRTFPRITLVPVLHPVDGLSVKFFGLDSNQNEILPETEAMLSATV
Put plainly: Spectral binding determination, CYP26B1. As to conditions: for Binding mechanism, CYP26B1: UV-difference spectra.

In data set [3] the target is T2, CYP26B1. Briefly: Inhibition of CYP26B1-catalyzed tazarotenic acid sulfoxide formation. The class given is biochemical.
The test system of data set [4] is CYP26A1, CYP26B1 or CYP2C8. Briefly: In vitro stability of candesartan cilexetil. The class given is in vitro ADME. As to conditions: 1 μM, 5 nM CYP26A1, CYP26B1 or CYP2C8, NADPH, up to 10 minutes; data not shown.
Data set [5] deals with T3, CYP26A1 (Homo sapiens, UniProt O43174).
T3 sequence (O43174 1-497): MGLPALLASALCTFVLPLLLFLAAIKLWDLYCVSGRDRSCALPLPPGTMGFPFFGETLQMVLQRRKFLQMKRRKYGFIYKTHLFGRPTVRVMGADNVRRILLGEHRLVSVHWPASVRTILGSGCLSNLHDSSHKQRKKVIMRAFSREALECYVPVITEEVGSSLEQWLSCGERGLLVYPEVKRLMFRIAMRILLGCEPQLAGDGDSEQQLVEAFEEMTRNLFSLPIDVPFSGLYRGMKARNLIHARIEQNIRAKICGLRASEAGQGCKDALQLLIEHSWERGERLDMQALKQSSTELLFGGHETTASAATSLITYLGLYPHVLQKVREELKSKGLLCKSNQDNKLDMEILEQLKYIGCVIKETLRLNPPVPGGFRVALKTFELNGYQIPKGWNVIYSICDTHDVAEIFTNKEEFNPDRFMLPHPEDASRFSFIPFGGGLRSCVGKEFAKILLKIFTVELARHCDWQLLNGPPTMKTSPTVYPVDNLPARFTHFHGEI
Briefly: Inhibition of CYP26A1-catalyzed tazarotenic acid sulfoxide formation. The class given is biochemical.

The test system of data set [6] is CYP2C8. Briefly: In vitro free fraction by rapid equilibrium dialysis. The class given is in vitro ADME. The following applies: human, pH 7.4, fu (IC50 assay), CYP2C8, conditions of CYP2C8 IC50 assay.
The conditions of data set [7]: unbound fraction in plasma; ref [64]–[73]; cited from earlier work.
The target of data set [8] is T1, CYP2C8. Briefly: Spectral binding determination, CYP2C8. As to conditions: UV-difference spectra.
For data set [9] the following is noted: human, in vivo.
For data set [10] the following is noted: following topical administration; ref [64]–[73]; cited from earlier work.
Data set [11] has as its target T3, CYP26A1. Briefly: Spectral binding determination, CYP26A1.
Data set [12] relates to CYP26A1. As to conditions: in vitro; ref [97]; cited from earlier work.
[13] abbreviates: CYP26B1 IC50, tazarotenic acid, recombinant CYP26B1, probe tazarotenic acid sulfoxide formation, ± standard error.

Molecules are shown by their SMILES. Like-named read-outs stand apart in the source and are kept apart here.

Take `CCOc1nc2cccc(C(=O)OC(C)OC(=O)OC3CCCCC3)c2n1Cc1ccc(-c2ccccc2-c2nnn[nH]2)cc1` (centres unmarked) [Candesartan Cilexetil]: the half-maximal inhibitory concentration (IC50) on CYP2C8 [1] is 496 ± 190 nM; on CYP26B1 [3] (setting [13]), 270 ± 60 nM; at CYP26A1 [5], 410 ± 320 nM. In addition, on CYP26B1 [2], the “Binding mechanism, CYP26B1” value is on record as “No binding spectra could be obtained”. Further, in data set [4], the “Degradation of candesartan cilexetil” value is reported as “Minimal degradation”.

Regarding `Clc1ccccc1C(c1ccccc1)(c1ccccc1)n1ccnc1` [Clotrimazole], the Kd at CYP26B1 [2] (Ks (spectral binding constant), CYP26B1, 500 nM protein, ± standard error) was 4950 ± 640 nM; on CYP26B1 [2] (Ks,unb CYP26B1, Ks corrected for nonspecific binding), 24.7 nM; at CYP26A1 [11] (Ks (spectral binding constant), CYP26A1, 500 nM protein, ± standard error) it was 533 ± 71.8 nM; at CYP26A1 [11] (Ks,unb CYP26A1, Ks corrected for nonspecific binding), 13.3 nM. Moreover, the “Binding mechanism, CYP26B1” value at CYP26B1 [2] is “Type II”. This compound had a fraction unbound at 12 h, 1 μM in the data set on CYP2C8 [6] of 0.155 ± 0.024. The “fu,plasma” value in data set [7] is recorded as 0.100. In addition, the IC50 against CYP26B1 [3] (CYP26B1 IC50, probe tazarotenic acid) came to 50.1 ± 12.1 nM; at CYP26B1 [3] (setting [13]) it was 50 ± 10 nM; against CYP26B1 [3] (IC50,unb CYP26B1, IC50 corrected for unbound fraction in the assay) it was 21.5 nM; against CYP26A1 [5] (CYP26A1 IC50, probe tazarotenic acid), 24.7 ± 8.1 nM; on CYP26A1 [5] (CYP26A1 IC50, tazarotenic acid, recombinant CYP26A1, probe tazarotenic acid sulfoxide formation, ± standard error), 20 ± 10 nM; at CYP26A1 [5] (IC50,unb CYP26A1, IC50 corrected for unbound fraction in the assay), 16.3 nM. The “Binding mechanism, CYP2C8” value on CYP2C8 [8] is “Type II”. Further, the “Cmax,u (skin)” value in data set [9] stood at 6.73 µM. Also, in data set [10], the Total skin concentration was 67.3 µM. For the same compound, the “Binding mechanism, CYP26A1” value at CYP26A1 [11] (UV-difference spectra) is given as “Type II”. Moreover, the “Inhibition of CYP26A1-catalyzed 4-hydroxyretinoic acid formation” value in the data set on CYP26A1 [12] is reported as “not be inhibitors”.

Source of the values: paper PMC6628712 (Journal of enzyme inhibition and medicinal chemistry, 2016).
